Entries after “also recorded” stand apart in the source; their conditions may differ.
Tests used:
[1] = tested on: Human intestinal L cells; assay: maintenance of ATP levels under bethanechol chloride; type: cell-based; settings: L cells incubated with bethanechol chloride; DMSO-treated L cells 67%
Procedure: To further examine how this increase in respiratory capacity affects L cell bioenergetics, the maintenance of ATP levels under energetic demanding conditions was evaluated. Human intestinal L cells treated with DMSO or Fex were incubated with the muscarinic receptor agonist bethanechol chloride and residual ATP levels determined. […] Fex-treated L cells were able to maintain 83% of the initial ATP abundance whereas DMSO-treated L cells were able to maintain 67% (FIG. 7D). Thus, Fex enhances overall mitochondrial bioenergetics in enteroendocrinal L cells.

[2] = tested on: enteroendocrinal L cells; assay: Gene expression analysis (QPCR) in enteroendocrinal L cells; type: cell-based, human
[3] = tested on: Leptin-deficient ob/ob mice; assay: metabolic phenotype and glucose homeostasis of treated ob/ob mice; type: in vivo, mouse
Procedure: Leptin-deficient ob/ob mice were purchased from Jackson laboratory (stock no. 000632). Each mouse consumed 100 mg per kg of body weight Fex (in corn oil) per day by oral gavage for 5 weeks. For in vivo analog study, each mouse consumed 50 mg per kg of body weight Fex-D (in corn oil) per day by oral gavage for 14 days. For GLP-1 receptor antagonist study, each mouse was daily treated with 100 μg per kg of body weight Exendin 9-39 amide (Abcam) via intraperitoneal injection for 2 weeks. For INT-777 study, each mouse was daily gavaged with 60 mg per kg of body weight INT-777 (in corn oil) for 5 weeks. For FGF15 study, each mouse was daily treated with 0.25 mg per kg of body weight FGF15 (in PBS with 0.1% BSA) via intravenous injection for 2 weeks. The sample sizes for all animal studies are indicated in each figure legend. All mice were housed in a specific pathogen-free facility with a 12-h light, 12-h dark cycle and given free access to food and water. All in vivo data were retrieved from 3 independent experimental animal cohorts. Core body temperature was measured with a clinical rectal thermometer (Thermalert model TH-5; Physitemp). For GTTs, 6-h fasted mice received 2 g of glucose per kg of body weight by oral gavage. Human insulin (Humilin, Eli Lilly) was used for insulin sensitivity test. Tail blood was drawn at indicated time intervals, and blood glucose level was measured with a One Touch Ultra glucometer (LifeScan). Body composition was measured with Echo MRI-100 body composition analyzer (Echo Medical Systems). All mice were randomly assigned to experimental groups for further analysis. No samples were excluded from the analysis.
Real-time metabolic analyses were conducted in a Comprehensive Lab Animal Monitoring System (Columbus Instruments). CO2 production, O2 consumption, RQ (relative rates of carbohydrate versus fat oxidation) and ambulatory counts were determined for 4 consecutive days and nights, with at least 24-h for adaptation before data recording.
To investigate the effect of Fex treatment in a diabetic mouse model, leptin-deficient obese mice (ob/ob) were subjected to daily treatment by oral gavage (100 mg/kg) for 5 weeks. […] Gene expression analysis confirmed the induction of UCP1 as well as a number of genes involved in β-oxidation, thermogenesis and oxidative phosphorylation (FIG. 1B-1D).

[4] = tested on: ob/ob mice; assay: in vivo glucose-stimulated insulin secretion (GSIS); set-up: species or system mouse; settings: Fex 100 mg/kg daily P.O., 5 weeks
Procedure: Insulin resistance can be associated with reduced […] insulin secretion in response to glucose, while GLP-1 augments glucose-stimulated insulin secretion (GSIS). To examine whether Fex treatment improves GSIS, serum insulin levels were determined after a glucose challenge in ob/ob mice.

[5] = tested on: ob/ob mice; assay: gene expression (RNA-Seq, QPCR) in tissues of treated ob/ob mice; type: in vivo, mouse
Procedure: Total RNA was isolated from cell pellets treated with RNAlater using the RNA mini kit (Qiagen) and treated with DNaseI (Qiagen) for 30 minutes at room temperature. Sequencing libraries were prepared from 100-500 ng total RNA using the TruSeq RNA Sample Preparation Kit v2 (Illumina) according to the manufacturer's protocol. Briefly, mRNA was purified, fragmented, and used for first-, then second-strand cDNA synthesis followed by adenylation of 3′ ends. Samples were ligated to unique adapters and subjected to PCR amplification. Mulitplexed libraries were then validated using the 2100 BioAnalyzer (Agilent), normalized, and pooled for sequencing. RNA-Seq libraries prepared from two biological replicates for each experimental condition were sequenced on the Illumina HiSeq 2500 using bar-coded multiplexing and a 100 bp read length.
Image analysis and base calling were performed with Illumina CASAVA-1.8.2. This yielded a median of 29.9M usable reads per sample. Short read sequences were mapped to a UCSC mm9 reference sequence using the RNA-seq aligner STAR. Known splice junctions from mm9 were supplied to the aligner and de novo junction discovery was also permitted. Differential gene expression analysis, statistical testing and annotation were performed using Cuffdiff 2. Transcript expression was calculated as gene-level relative abundance in fragments per kilobase of exon model per million mapped fragments and employed correction for transcript abundance bias. RNA-Seq results for genes of interest were also explored visually using the UCSC Genome Browser.

[6] = tested on: Leptin-deficient ob/ob mice; assay: metabolic phenotype and glucose homeostasis of treated ob/ob mice; type: in vivo, mouse; settings: Fex 100 mg/kg/day, reduced treatment duration (2 weeks)
[7] = in vitro permeability in Caco2 cells; settings: human; for Papp A→B at 2 h, 10 μM: Caco2 cells, assay conc. 10 μM
[8] = tested on: human intestinal epithelial Caco2 cells; assay: in vitro permeability in Caco2 cells; settings: Caco2 cells, 2 hour incubation
[9] = Fex 100 mg/kg daily oral gavage, 5 weeks
[10] = Fex 100 mg/kg daily oral gavage, 5 weeks, after 4 hour fast

Papp B→A at 2 h, 10 μM ([7]; Caco-2): 0.77 ×10⁻⁶ cm/s
recovery at 2 h, 10 μM ([7]; Caco-2): 150%
Papp A→B at 2 h, 10 μM ([7]; Caco-2, A-B Permeability Ranking): < 1 ×10⁻⁶ cm/s
Papp A→B at 2 h, 10 μM ([7]; Caco-2, Mean Papp, A-B, 2 hour incubation): 0.597 ×10⁻⁶ cm/s
in vitro permeability [8]: low
SMILES: COC(=O)/C=C/c1cccc(N(Cc2ccc(-c3ccc(N(C)C)cc3)cc2)C(=O)C2CCCCC2)c1 [Fexaramine]
residual ATP, % of the initial ATP abundance maintained [1]: 83%
DPP4 expression [2]: no effect
proglucagon expression [2]: no effect
SHP expression (FXR target gene) ([2]; listed as Fex): induced; also recorded: induction
core temperature [3, 9]: increase
glucose tolerance [3, 9]: improved
gonadal fat (gWAT) tissue weight [3, 9]: modestly but significantly reduced
hepatic gluconeogenesis/lipogenesis [3, 9]: remarkably suppressed
insulin sensitivity [3, 9]: improved
proportion of M2 macrophages in gWAT [3, 9]: increasing
glucose levels [3, 10]: reduced
insulin levels [3, 10]: reduced
respiratory exchange ratio in the dark period ([3]; Fex 100 mg/kg daily oral gavage, 5 weeks, metabolic cages): increased
time serum glucose levels remained low after cessation of treatment ([3]; monitored for 4 weeks after Fex treatment was stopped): 3 weeks
serum insulin after a glucose challenge [4]: significant increase
FXR target genes SHP and FGF15 in the intestine ([5]; Fex 100 mg/kg daily P.O., 5 weeks, ileum): markedly upregulated
expression of the GLP-1 receptor in islets ([5]; Fex 100 mg/kg for 5 weeks, listed as Fex): increased expression; also recorded: significantly increased
fasting glucose levels [6]: little effect

Source: patent US20180000768A1, “INTESTINAL FXR AGONISM ENHANCES GLP-1 SIGNALING TO RESTORE PANCREATIC BETA CELL FUNCTIONS” (Salk Institute for Biological Studies, priority 2015, published 2018)
